# Laboratory results from patent US20250034170A1, “SMALL MOLECULE MODULATORS OF GLUCOCEREBROSIDASE ACTIVITY AND USES THEREOF” (Vanqua Bio, Inc., priority 2021, published 2025).
# Biological target: T1, GCase (Homo sapiens, UniProt P04062)
# T1 construct: endogenous in cells; host or cells: HeLa cells
# T1 sequence (P04062 40-536): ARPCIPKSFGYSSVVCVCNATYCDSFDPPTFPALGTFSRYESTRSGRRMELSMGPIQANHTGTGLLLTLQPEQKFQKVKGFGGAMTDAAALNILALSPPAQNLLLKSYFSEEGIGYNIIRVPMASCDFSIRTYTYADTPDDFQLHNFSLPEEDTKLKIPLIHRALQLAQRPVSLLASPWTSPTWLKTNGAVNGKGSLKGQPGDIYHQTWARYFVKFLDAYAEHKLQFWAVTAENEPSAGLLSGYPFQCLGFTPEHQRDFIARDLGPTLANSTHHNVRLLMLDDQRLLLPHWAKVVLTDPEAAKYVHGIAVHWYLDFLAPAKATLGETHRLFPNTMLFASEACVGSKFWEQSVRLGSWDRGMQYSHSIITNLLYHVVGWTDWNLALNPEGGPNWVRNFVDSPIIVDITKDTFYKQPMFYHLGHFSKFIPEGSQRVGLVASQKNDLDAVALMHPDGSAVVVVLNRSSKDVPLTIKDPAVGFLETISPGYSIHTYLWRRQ
# Assay: activation of GCase in a live cell PFB assay in HELA cells
# Type: cell-based
# Conditions: activation of GCase, EC50 ranges
# Method: Exemplary compounds were evaluated for activation of GCase in a live cell PFB assay in HELA cells (essentially as described in Ysselstein et al., “LRRK2 kinase activity regulates lysosomal glucocerebrosidase in neurons derived from Parkinson's disease patients” Nature Communications (2019) 10:5570). […] EC50 ranges: A: <10 μM; B: >10-50 μM; C: >50-100 μM; D: >100 μM.
row,SMILES,EC50 [µM]
1,FC(F)Cn1ncc2ncc(N3CCC4(C3)CN(c3ccnc(C(F)(F)F)c3)C4)cc21 [Cmpd 635],< 10
2,Cc1nc(N2CC3(CCN(c4cnc5cnn(CC(F)F)c5c4)C3)C2)cc(C(F)(F)F)n1 [Cmpd 636],< 10
3,Cc1nc(N2CC3(CCN(c4ccc5nccn5n4)C3)C2)cc(C(F)(F)F)n1 [Cmpd 637],10 to 50
4,Cc1cn2nc(N3CCC4(CN(c5cc(C(F)(F)F)nc(C)n5)C4)C3)ccc2n1 [Cmpd 638],10 to 50
5,Cc1cc(N2CC3(CCN(c4cnc5cnn(CC(F)F)c5n4)C3)C2)nc(C)n1 [Cmpd 639],10 to 50
6,Cc1cc(N2CC3(CCN(c4cnc5c(C)nn(CC(F)F)c5n4)C3)C2)nc(C)n1 [Cmpd 640],10 to 50
7,Cc1cc(N2CC3(CCN(c4ncc5c(C)nn(CC(F)F)c5n4)C3)C2)nc(C)n1 [Cmpd 641],10 to 50
8,Cc1cc(N2CC3(CCN(c4ncc5cnn(CC(F)F)c5n4)C3)C2)nc(C)n1 [Cmpd 642],10 to 50
9,Cc1cc(N2CC3(CCN(c4ncc5cnn(C6COC6)c5n4)C3)C2)nc(C)n1 [Cmpd 643],10 to 50
10,Cc1cc(N2CC3(CCN(c4ncc5c(C)nn(C6COC6)c5n4)C3)C2)nc(C)n1 [Cmpd 644],10 to 50
11,Cc1cc(N2CC3(CCN(c4cnc5c(C)nn(C6COC6)c5n4)C3)C2)nc(C)n1 [Cmpd 645],10 to 50
12,Cc1cc(N2CC3(CCN(c4cnc5cnn(C6COC6)c5n4)C3)C2)nc(C)n1 [Cmpd 646],10 to 50
13,Cc1nc(N2CC3(CCN(c4ncc5cnn(C)c5n4)C3)C2)cc(C(F)(F)F)n1 [Cmpd 647],10 to 50
14,Cc1nc(N2CC3(CCN(c4ncc5c(C)nn(C)c5n4)C3)C2)cc(C(F)(F)F)n1 [Cmpd 648],< 10
15,Cc1nc(N2CC3(CCN(c4cnc5cnn(C)c5n4)C3)C2)cc(C(F)(F)F)n1 [Cmpd 649],10 to 50
16,Cc1nc(N2CC3(CCN(c4ncc5cnn(C(F)F)c5n4)C3)C2)cc(C(F)(F)F)n1 [Cmpd 650],< 10
17,Cc1nc(N2CC3(CCN(c4ncc5cn(C(F)F)nc5n4)C3)C2)cc(C(F)(F)F)n1 [Cmpd 651],10 to 50
18,Cc1ncc(N2CC3(CCN(c4cnc5cnn([C@H]6CCOC6)c5n4)C3)C2)c(C(F)(F)F)n1 [Cmpd 652],> 100
19,Cc1ncc(N2CC3(CCN(c4cnc5cnn([C@@H]6CCOC6)c5n4)C3)C2)c(C(F)(F)F)n1 [Cmpd 653],> 100
20,FC(F)(F)c1ncc(N2CC3(CCN(c4cnc5cnn([C@H]6CCOC6)c5n4)C3)C2)cn1 [Cmpd 654],10 to 50
21,FC(F)(F)c1ncc(N2CC3(CCN(c4cnc5cnn([C@@H]6CCOC6)c5n4)C3)C2)cn1 [Cmpd 655],10 to 50
22,Cc1nc(C(F)(F)F)ncc1N1CC2(CCN(c3cnc4cnn([C@H]5CCOC5)c4n3)C2)C1 [Cmpd 656],50 to 100
23,Cc1nc(C(F)(F)F)ncc1N1CC2(CCN(c3cnc4cnn([C@@H]5CCOC5)c4n3)C2)C1 [Cmpd 657],10 to 50
24,Cc1nc(C(F)(F)F)ncc1N1CCC2(CCN(c3ncc4c(C)nn(CC(F)(F)F)c4n3)C2)C1 (stereo not drawn) [Cmpd 658],10 to 50

row,SMILES,EC50 [µM]
1,Cc1ncc(N2CCC3(CCN(c4ncc5c(C)nn(CC(F)(F)F)c5n4)C3)C2)c(C(F)(F)F)n1 (stereo not drawn) [Cmpd 659],10 to 50
2,FC(F)(F)c1ccc(N2CC3(CCN(c4cnc5cnn(C6COC6)c5n4)C3)C2)cn1 [Cmpd 660],10 to 50
3,CC1(C)CC2(CCN(c3cnc4cnn(CC(F)F)c4n3)CC2)C(=O)N1c1cc(C(F)(F)F)ccn1 [Cmpd 661],10 to 50
4,CC1(C)N(c2cc(C(F)(F)F)ccn2)C(=O)CC12CCN(c1cnc3cnn(CC(F)F)c3n1)CC2 [Cmpd 662],10 to 50
5,CCC1N(c2cc(C(F)(F)F)ccn2)C(=O)CC12CCN(c1cnc3cnn(CC(F)F)c3n1)CC2 (stereo not drawn) [Cmpd 663],10 to 50
6,O=C1N(c2nc(C(F)(F)F)c(F)cc2F)CCC12CCN(c1cnc3cnn(CC(F)F)c3n1)CC2 [Cmpd 664],10 to 50
7,COc1cc(N2CCC3(CCN(c4cnc5cnn(CC(F)F)c5n4)CC3)C2=O)nc(C(F)(F)F)c1 [Cmpd 665],> 100
8,Cn1c(N2CCC3(CCN(c4cnc5cnn(CC(F)F)c5n4)CC3)C2=O)cc(=O)cc1C(F)(F)F [Cmpd 666],< 10
9,O=C1CC2(CCN1c1cnc3cnn(CC(F)F)c3n1)CN(c1cccc(C(F)(F)F)n1)C2 [Cmpd 667],50 to 100
10,CC1CC2(CCN(c3cccc(C(F)(F)F)n3)C2=O)CCN1c1cnc2cnn(CC(F)F)c2n1 (stereo not drawn) [Cmpd 668],< 10
11,CC1CN(c2cnc3cnn(CC(F)F)c3n2)CC[C@@]12CCN(c1cccc(C(F)(F)F)n1)C2=O (stereo partly drawn) [Cmpd 670],10 to 50
12,CN(C)C(=O)c1cccc(N2CCC3(CCN(c4cnc5cnn(CC(F)F)c5n4)CC3)C2=O)n1 [Cmpd 671],< 10
13,COCCOc1cccc(N2CCC3(CCN(c4cnc5cnn(CC(F)F)c5n4)CC3)C2=O)n1 [Cmpd 672],10 to 50
14,O=C1N(c2ccc(C(F)(F)F)nc2)CCC12CCN(c1cnc3cnn(CC(F)F)c3n1)CC2 [Cmpd 673],< 10
15,O=C1N(c2cncc(C(F)(F)F)c2)CCC12CCN(c1cnc3cnn(CC(F)F)c3n1)CC2 [Cmpd 674],< 10
16,O=C1N(c2cnccc2C(F)(F)F)CCC12CCN(c1cnc3cnn(CC(F)F)c3n1)CC2 [Cmpd 675],10 to 50
17,O=C1N(c2ccnc(C(F)(F)F)c2)CCC12CCN(c1cnc3cnn(CC(F)F)c3n1)CC2 [Cmpd 676],< 10
18,O=C1N(c2ccncc2C(F)(F)F)CCC12CCN(c1cnc3cnn(CC(F)F)c3n1)CC2 [Cmpd 677],10 to 50
19,O=C1N(c2ccc(C(F)(F)F)cn2)CCC12CCN(c1cnc3cnn(CC(F)F)c3n1)CC2 [Cmpd 678],10 to 50
20,O=C1N(c2ncccc2C(F)(F)F)CCC12CCN(c1cnc3cnn(CC(F)F)c3n1)CC2 [Cmpd 679],10 to 50
21,O=C1CC2(CCN(c3cnc4cnn(CC(F)F)c4n3)CC2)CN1c1ccc(C(F)(F)F)nc1 [Cmpd 680],10 to 50
22,O=C1CC2(CCN(c3cnc4cnn(CC(F)F)c4n3)CC2)CN1c1cncc(C(F)(F)F)c1 [Cmpd 681],10 to 50
23,O=C1CC2(CCN(c3cnc4cnn(CC(F)F)c4n3)CC2)CN1c1cnccc1C(F)(F)F [Cmpd 682],10 to 50
24,O=C1CC2(CCN(c3cnc4cnn(CC(F)F)c4n3)CC2)CN1c1ccnc(C(F)(F)F)c1 [Cmpd 683],< 10

row,SMILES,EC50 [µM]
1,O=C1CC2(CCN(c3cnc4cnn(CC(F)F)c4n3)CC2)CN1c1ccncc1C(F)(F)F [Cmpd 684],< 10
2,O=C1CC2(CCN(c3cnc4cnn(CC(F)F)c4n3)CC2)CN1c1ccc(C(F)(F)F)cn1 [Cmpd 685],10 to 50
3,O=C1CC2(CCN(c3cnc4cnn(CC(F)F)c4n3)CC2)CN1c1ncccc1C(F)(F)F [Cmpd 686],> 100
4,FC(F)Cn1ncc2ncc(N3CCC4(CCC(Oc5ccncc5C(F)(F)F)C4)CC3)nc21 (stereo not drawn) [Cmpd 687],< 10
5,FC(F)Cn1ncc2ncc(N3CCC4(CCC(Oc5cnccc5C(F)(F)F)C4)CC3)nc21 (stereo not drawn) [Cmpd 688],< 10
6,FC(F)Cn1ncc2ncc(N3CCC4(CCC(Oc5ncccc5C(F)(F)F)C4)CC3)nc21 (stereo not drawn) [Cmpd 689],10 to 50
7,FC(F)Cn1ncc2ncc(N3CCC4(CCC(Oc5ccnc(C(F)(F)F)c5)C4)CC3)nc21 (stereo not drawn) [Cmpd 690],< 10
8,FC(F)Cn1ncc2ncc(N3CCC4(CCC(Oc5cncc(C(F)(F)F)c5)C4)CC3)nc21 (stereo not drawn) [Cmpd 691],10 to 50
9,FC(F)Cn1ncc2ncc(N3CCC4(CCC(Oc5cc(C(F)(F)F)ccn5)C4)CC3)nc21 (stereo not drawn) [Cmpd 692],10 to 50
10,FC(F)Cn1ncc2ncc(N3CCC4(CCC(Oc5ccc(C(F)(F)F)nc5)C4)CC3)nc21 (stereo not drawn) [Cmpd 693],< 10
11,FC(F)Cn1ncc2ncc(N3CCC4(CCC(Oc5ccc(C(F)(F)F)cn5)C4)CC3)nc21 (stereo not drawn) [Cmpd 694],10 to 50
12,FC(F)Cn1ncc2ncc(N3CCC4(CC3)CC(COc3ccnc(C(F)(F)F)c3)C4)nc21 [Cmpd 695],< 10
13,FC(F)Cn1ncc2ncc(N3CCC4(CC3)CC(COc3cncc(C(F)(F)F)c3)C4)nc21 [Cmpd 696],< 10
14,FC(F)Cn1ncc2ncc(N3CCC4(CC3)CC(COc3cc(C(F)(F)F)ccn3)C4)nc21 [Cmpd 697],10 to 50
15,FC(F)Cn1ncc2ncc(N3CCC4(CC3)CC(COc3ccncc3C(F)(F)F)C4)nc21 [Cmpd 698],< 10
16,FC(F)Cn1ncc2ncc(N3CCC4(CC3)CC(COc3cnccc3C(F)(F)F)C4)nc21 [Cmpd 699],< 10
17,FC(F)Cn1ncc2ncc(N3CCC4(CC3)CC(COc3ncccc3C(F)(F)F)C4)nc21 [Cmpd 700],< 10
18,FC(F)Cn1ncc2ncc(N3CCC4(CC3)CC(COc3ccc(C(F)(F)F)nc3)C4)nc21 [Cmpd 701],10 to 50
19,FC(F)Cn1ncc2ncc(N3CCC4(CC3)CC(COc3ccc(C(F)(F)F)cn3)C4)nc21 [Cmpd 702],10 to 50
20,FC(F)Cn1ncc2ncc(N3CCC4(CC3)CC(Oc3ccnc(C(F)(F)F)c3)C4)nc21 [Cmpd 703],< 10
21,FC(F)Cn1ncc2ncc(N3CCC4(CC3)CC(Oc3cncc(C(F)(F)F)c3)C4)nc21 [Cmpd 704],< 10
22,FC(F)Cn1ncc2ncc(N3CCC4(CC3)CC(Oc3cc(C(F)(F)F)ccn3)C4)nc21 [Cmpd 705],10 to 50
23,FC(F)Cn1ncc2ncc(N3CCC4(CC3)CC(Oc3ccncc3C(F)(F)F)C4)nc21 [Cmpd 706],< 10
24,FC(F)Cn1ncc2ncc(N3CCC4(CC3)CC(Oc3cnccc3C(F)(F)F)C4)nc21 [Cmpd 707],10 to 50
